{"source": "patent US6641848B1", "about": "“Saponin or sapogenol compositions for increasing collagen IV synthesis” (Parfums Christian Dior, priority 1998, dated 2003)", "key": {"collagen IV [1]": {"test_system": "collagen IV", "experiment": "Amount of collagen IV in normal human keratinocyte culture (ELISA), soya saponins with beta-ecdysone, 48 h", "assay_type": "cell-based", "details": "beta-ecdysone alone, same experiment", "procedure": "(§1) The cultures of normal human keratinocytes (NHK) are grown from a surgical specimen of healthy skin. In the present study, the tests were carried out on a strain of cells, denoted by HK 44, originating from a facelift performed on a person.\nThe keratinocytes are cultured in K-SFM growth medium, which is a complete specific keratinocyte culture medium (SFM=serum free medium) complemented with EGF (epidermal growth factor) and pituitary extract, said medium being marketed by Gibco, France. The cells were subcultured once from the primary culture in one passage, denoted by P1.\nThe cells are inoculated in 96-well culture plates at a rate of 25,000 NHK per well in K-SFM. After 24 h of incubation, which is necessary for good adhesion of the cells, the inoculation medium is withdrawn and replaced with K-SFM diluted 50-fold in the same base medium, but devoid of EGF and pituitary extract. […]\nThe controls will receive the same amount of DMSO solvent as for the product tested at a final concentration of 0.1%.\nThe culture supernatants are recovered for carrying out an ELISA, as explained below.\nThe protocol for assaying the collagen IV by an ELISA method is adapted from that described by DUMAS M. et al. in Mechanisms of Ageing and Development, 1994, 73, pages 179-187. […]\n(§2) The activity A of the product is expressed as a percentage and corresponds to the following formula: [formula] […]"}, "collagen IV [2]": {"test_system": "collagen IV", "experiment": "Amount of collagen IV in normal human keratinocyte culture (ELISA), soya seed saponins, 72 h", "assay_type": "cell-based", "details": "10 ng/ml", "procedure": "A soya seed extract commercially available under the reference SOY SELECT LOT 26040/2 from the Italian company Indena is used in this Example.\nAccording to the marketing information, this extract contains saponins of the “soya saponin” category in a proportion of 29 to 30% by dry weight, with a predominance of group B soya sapogenols.\nTo validate the pertinence of the chosen experimental protocol, a series of these tests was carried out with a positive control, namely transforming growth factor beta (TGF-beta), which is known to increase the amount of collagen IV in a culture of human keratinocytes. Reference may be made to the article by Köning A. and Bruckner-Tuderman L., J. Cell. Biol., May 1992, 117(3), 679-85.\nas §1\nThe keratinocytes are cultured in K-SFM growth medium, which is a complete specific keratinocyte culture medium (SFM=serum free medium) complemented with EGF (epidermal growth factor) and pituitary extract, said medium being marketed by Gibco, France. […]\nas §2"}}, "data": [{"compound": "CC(C)(O)CC[C@@H](O)[C@](C)(O)[C@H]1CC[C@@]2(O)C3=CC(=O)[C@@H]4C[C@@H](O)[C@@H](O)C[C@]4(C)[C@H]3CC[C@]12C", "note": "[beta-ecdysone]", "values": [{"measurement": "increase in the amount of collagen IV", "setting": "collagen IV [1]", "value": "No increase"}]}, {"compound": "transforming growth factor beta [TGF-beta]", "values": [{"measurement": "Q (ng collagen IV/100 μg proteins; at 72 h)", "setting": "collagen IV [2]; NHK strain HK 44", "value": "5.615 ± 0.595 ng collagen IV/100 μg proteins"}, {"measurement": "A (%)", "setting": "collagen IV [2]; vs DMSO control", "value": "+50%"}]}]}
